We go through eight compounds from PubChem BioAssay (NCI).

Among the test systems are A498 renal; DU-145 prostate; HCC-2998 colon; HOP-62 NSCLC; NCI-H226 lung; RXF 393 renal; SF-268 CNS; SNB-75 CNS; UACC-257 melanoma; UO-31 renal.
Experiment in all cases: inhibition of tumour cell growth, NCI panel, 48 h

Values joined by “and” are separate entries in the source; they are usually repeats but may differ in a detail not shown here. Equal values may be shown once.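 Step 1: Grow cells in 96-well plates. Step 2: Expose to compound for 48 hours at 5 concentrations. Step 3: Interpolate endpoints linearly; if unreached, use highest concentration. GI50: concentration for 50% inhibition of growth. TGI denotes the concentration required for complete inhibition of growth.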

Consider `CCCCN(CCCC)CC(C)(C)C(O)c1ccc(OC)c2ccccc12` (stereo not given), for which the GI50 in the test with A498 renal is 4.27 µM; in the test with DU-145 prostate, 10.2 µM; in the test on HCC-2998 colon, 3.69 µM; in the test with HOP-62 NSCLC, 6.5 µM; with NCI-H226 lung, 2.42 µM; with RXF 393 renal, 1.5 µM. Also, the GI50 in the test on SF-268 CNS was 12.6 µM; in the test on SNB-75 CNS, 6.31 µM; with UACC-257 melanoma, 6.31 µM; in the test on UO-31 renal, 3.02 µM. The TGI is 22.9 µM in the test with A498 renal; 52.3 µM with DU-145 prostate; 12 µM with HCC-2998 colon; 20.6 µM in the test on HOP-62 NSCLC; 9.24 µM in the test on NCI-H226 lung; 4.51 µM with RXF 393 renal. The TGI stood at 38.3 µM with SF-268 CNS, 30.3 µM with SNB-75 CNS, 23.8 µM with UACC-257 melanoma and 17.4 µM in the test with UO-31 renal.

Consider `C=C1C(=O)O[C@H]2[C@H]1[C@H](OC(=O)/C(C)=C\C)C[C@]1(CO1)[C@@H]1[C@H](OC(C)=O)C=C(C)[C@]21O`, for which the TGI was more than 100 µM with A498 renal; 29 µM in the test on DU-145 prostate; 35.5 µM in the test with HCC-2998 colon; more than 100 µM with HOP-62 NSCLC; more than 61.2 µM with NCI-H226 lung; 25.6 µM with RXF 393 renal. Besides, the TGI is 45.5 µM in the test with SF-268 CNS, more than 100 µM in the test on SNB-75 CNS, 39.2 µM with UACC-257 melanoma and 29.4 µM in the test on UO-31 renal.

With `O=C1C(Cl)=C(Nc2cccc(C(F)(F)F)c2)C(=O)N1Cc1ccccc1Cl`, the GI50 with A498 renal was 5.06 µM; in the test on DU-145 prostate it was 14 µM; in the test on HCC-2998 colon, 12.6 µM; in the test on HOP-62 NSCLC, 12.6 µM; in the test on NCI-H226 lung it was 0.0858 µM; in the test with RXF 393 renal it was 1.12 µM. Moreover, the GI50 is 7.7 µM with SF-268 CNS, 0.996 µM in the test on SNB-75 CNS, 13.7 µM in the test on UACC-257 melanoma and 5.01 µM in the test on UO-31 renal. Also, the TGI in the test on A498 renal is 19.7 µM; with DU-145 prostate it was 29.6 µM; with HCC-2998 colon, 28 µM; with HOP-62 NSCLC, 25.4 µM; with NCI-H226 lung it was 3.01 µM; in the test on RXF 393 renal it was 10.4 µM. The TGI in the test with SF-268 CNS is 26.1 µM; in the test on SNB-75 CNS it was 9.55 µM; in the test with UACC-257 melanoma, 29.7 µM; in the test with UO-31 renal, more than 43.6 µM.

As for `O=C(O)c1ccc(-c2ccc(C(=O)O)cc2I)c(I)c1`, the GI50 in the test with A498 renal, in the test on DU-145 prostate, in the test on HCC-2998 colon, in the test on HOP-62 NSCLC, in the test on NCI-H226 lung and in the test on RXF 393 renal was more than 100 µM in each case. Moreover, the GI50 in the test on SF-268 CNS, in the test with SNB-75 CNS, with UACC-257 melanoma and in the test with UO-31 renal was more than 100 µM each time. The TGI in the test with A498 renal, in the test on DU-145 prostate, in the test on HCC-2998 colon, in the test on HOP-62 NSCLC, with NCI-H226 lung and in the test on RXF 393 renal was more than 100 µM each time. Also, the TGI in the test on SF-268 CNS, in the test with SNB-75 CNS, in the test with UACC-257 melanoma and in the test with UO-31 renal was more than 100 µM throughout.

In the case of `COc1cc(C2CC(c3ccc4c(c3)OCO4)=NN2C(C)=O)cc(OC)c1OC` (stereo not given), the GI50 is 0.296 µM with A498 renal; 1.06 µM in the test on DU-145 prostate; 2.36 µM with HCC-2998 colon; 1.14 µM with HOP-62 NSCLC; 13.5 µM in the test with NCI-H226 lung; 1.56 µM in the test on RXF 393 renal. In addition, the GI50 in the test on SF-268 CNS is 6.42 µM; with SNB-75 CNS, 0.398 µM; with UACC-257 melanoma, more than 35.2 µM; with UO-31 renal, 3.72 µM. Besides, the TGI was 4.75 µM in the test with A498 renal; more than 21.4 µM in the test with DU-145 prostate; 60 µM in the test on HCC-2998 colon; more than 100 µM in the test with HOP-62 NSCLC; more than 100 µM in the test on NCI-H226 lung; more than 23.2 µM in the test on RXF 393 renal. The TGI is more than 100 µM with SF-268 CNS, 3.5 µM in the test on SNB-75 CNS, more than 100 µM in the test with UACC-257 melanoma and more than 86.8 µM in the test with UO-31 renal.

As for `Oc1ccc(/C=N/Nc2nc3ccccc3s2)c(O)c1`, the GI50 was 4.16 µM in the test with A498 renal; 1.86 µM in the test on DU-145 prostate; 3.76 µM in the test with HCC-2998 colon; 3.43 µM in the test on HOP-62 NSCLC; 3.56 µM in the test on NCI-H226 lung; 3.36 µM with RXF 393 renal. The GI50 in the test with SF-268 CNS is 1.11 µM; in the test with SNB-75 CNS, 1.51 µM; with UACC-257 melanoma, 2.79 µM; with UO-31 renal, 0.341 µM. In addition, the TGI in the test with A498 renal is 36.8 µM; with DU-145 prostate, 17.6 µM; with HCC-2998 colon it was 19.4 µM; in the test with HOP-62 NSCLC it was more than 100 µM; in the test on NCI-H226 lung it was 65.9 µM; in the test on RXF 393 renal, more than 100 µM. In addition, the TGI with SF-268 CNS is more than 100 µM; with SNB-75 CNS, 9.96 µM; in the test on UACC-257 melanoma it was 14.2 µM; in the test on UO-31 renal it was 4.23 µM.

For `O=C1C=CN(C2OC(CO)C(O)C2O)C(=O)C1` (stereo not given), the TGI is more than 2500 µM in the test on A498 renal; more than 819 µM with DU-145 prostate; 625 µM and > 2500 µM with HCC-2998 colon; 625 µM and 1340 µM in the test on HOP-62 NSCLC; more than 2500 µM in the test with NCI-H226 lung; 625 µM and > 2500 µM with RXF 393 renal. The TGI is 625 µM and > 2500 µM in the test on SF-268 CNS; more than 2500 µM in the test on SNB-75 CNS; more than 1940 µM in the test on UACC-257 melanoma; 625 µM and > 2500 µM with UO-31 renal. Further, the GI50 in the test with HOP-62 NSCLC was 18.7 µM; in the test with NCI-H226 lung it was more than 625 µM; in the test with RXF 393 renal it was 514 µM; in the test on SF-268 CNS, 172 µM and 231 µM; in the test with UO-31 renal, 26.7 µM.

On to `COC(=O)[C@@H](Cc1c[nH]c2ccccc12)NC(=O)/C=C/c1ccccc1`, for which the GI50 in the test on A498 renal was 0.511 µM; in the test on DU-145 prostate, 4.58 µM; in the test on HCC-2998 colon it was 2.65 µM; in the test with HOP-62 NSCLC it was 3.62 µM; in the test on NCI-H226 lung it was 6.06 µM; in the test on RXF 393 renal it was 1.5 µM. In addition, the GI50 in the test on SF-268 CNS was 4.52 µM; in the test on SNB-75 CNS, 2.42 µM; in the test on UACC-257 melanoma it was 9.03 µM; in the test with UO-31 renal it was 3.68 µM. The TGI with A498 renal was 6.75 µM; with DU-145 prostate, more than 100 µM; with HCC-2998 colon, 8.56 µM; in the test on HOP-62 NSCLC, more than 100 µM; in the test on NCI-H226 lung, more than 100 µM; in the test with RXF 393 renal, 4.58 µM. The TGI with SF-268 CNS, with SNB-75 CNS, in the test on UACC-257 melanoma and in the test on UO-31 renal was more than 100 µM each time.
